Experimental data from patent US20100234377A1 (priority 2007, published 2010).
Read-outs that look alike come from different tables or passages of the source.

Biological target: T1, human Prostaglandin D Synthase (GST2) (Homo sapiens, UniProt O60760)
T1 construct: the open reading frame of human Prostaglandin D Synthase was amplified from cDNA; made in house; host or cells: E. coli TOP10F'
Experiment: Homogeneous biochemical assay of human Prostaglandin D Synthase (GST2) based on its glutathion-S-transferase activity (GSH conjugation to monochlorobimane, fluorescence)
In short: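 N-His-tagged human PGD synthase from E. coli, assayed via its GST activity: GSH conjugation to monochlorobimane in 50 mM MES/KOH pH 6.1, 0.7 mM GSH, 2 mM MgCl2. Compounds at final picomolar to triple-digit micromolar concentrations.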

[1] = given beside the compound name in Examples 1 to 167, read-out: Potency Range (GST2 IC50)
[2] = Table 2, comparative examples, read-out: GST2 inhibition IC50

T1 sequence (O60760 whole entry): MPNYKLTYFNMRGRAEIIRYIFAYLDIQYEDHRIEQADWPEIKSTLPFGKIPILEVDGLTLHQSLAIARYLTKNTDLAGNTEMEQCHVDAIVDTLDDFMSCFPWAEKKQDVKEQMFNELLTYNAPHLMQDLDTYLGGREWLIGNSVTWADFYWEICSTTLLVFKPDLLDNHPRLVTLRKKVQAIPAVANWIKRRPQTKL

Structure (SMILES)	IC50 [1] [nM]	also measured
O=C(Nc1cccc(N2CCOCC2)c1)N1CCN(C(=O)c2cccc(F)c2)CC1 [Compound 31, 4-(3-Fluoro-benzoyl)-piperazine-1-carboxylic acid (3-morpholin-4-yl-phenyl)-amide]	101 to 1000	–
Cc1ccccc1C(=O)N1CCN(C(=S)Nc2ccc(N3CCOCC3)nc2)CC1 [Compound 152, 4-(2-Methyl-benzoyl)-piperazine-1-carbothioic acid (6-morpholin-4-yl-pyridin-3-yl)-amide]	11 to 100	–
CC(C)C(=O)N1CCN(c2ccc(NC(=O)N3CCN(C(=O)c4cc(F)ccc4F)CC3)cc2F)CC1 [Compound 58, 4-(2,5-Difluoro-benzoyl)-piperazine-1-carboxylic acid [3-fluoro-4-(4-isobutyryl-piperazin-1-yl)-phenyl]-amide]	101 to 1000	–
CC(=O)N1CCN(c2ccc(NC(=O)N3CCN(C(=O)c4cccc(F)c4)CC3)cc2)CC1 [Compound 61]	101 to 1000	–
O=C(Nc1nnc(-c2ccccc2)o1)N1CCN(C(=O)c2cccc(F)c2)CC1 [Compound 72, 4-(3-Fluoro-benzoyl)-piperazine-1-carboxylic acid (5-phenyl-[1,3,4]oxadiazol-2-yl)-amide]	11 to 100	–
CCN(CC)C(=O)c1ccc(NC(=O)N2CCN(C(=O)c3cccc(F)c3)CC2)cc1 [Compound 102, 4-(3-Fluoro-benzoyl)-piperazine-1-carboxylic acid (4-diethylcarbamoyl-phenyl)-amide]	–	IC50: 101 to 1000 nM
O=C(Nc1ccc(N2CCN(C(=O)NC3CCCC3)CC2)c(F)c1)N1CCN(C(=O)c2cccc(F)c2)CC1 [Compound 54, N-{4-[4-(cyclopentylcarbamoyl)piperazin-1-yl]-3-fluorophenyl}-4-(3-fluorobenzoyl)piperazine-1-carboxamide]	11 to 100	–
O=C(Nc1ccc(F)nc1)c1cccc(C(=O)N2CCN(C(=O)Nc3ccc(F)cc3)CC2)c1 [Compound XVIII, 4-[3-(6-Fluoro-pyridin-3-ylcarbamoyl)-benzoyl]-piperazine-1-carboxylic acid (4-fluoro-phenyl)-amide, reference compound]	–	IC50 [2]: 19500 nM
Cc1cc(NC(=O)N2CCN(C(=O)c3cccc(F)c3)CC2)no1 [Compound 62, 4-(3-Fluoro-benzoyl)-piperazine-1-carboxylic acid (5-methyl-isoxazol-3-yl)-amide]	101 to 1000	–
O=C(Nc1ccc(NC(=O)N2CCN(C(=O)c3cccc(F)c3)CC2)cc1)C1CCOCC1 [Compound 124, 4-(3-Fluoro-benzoyl)-piperazine-1-carboxylic acid {4-[(tetrahydro-pyran-4-carbonyl)-amino]-phenyl}-amide]	101 to 1000	–
O=C(Nc1ccc(N2CCOCC2)c(F)c1)N1CCN(C(=O)c2cc(F)ccc2F)CC1 [Compound 47, 4-(2,5-Difluoro-benzoyl)-piperazine-1-carboxylic acid (3-fluoro-4-morpholin-4-yl-phenyl)-amide]	101 to 1000	–
Cc1ccc(NC(=S)N2CCN(C(=O)c3ccc(F)cc3)CC2)cc1 [Compound 13, 4-(4-Fluoro-benzoyl)-piperazine-1-carbothioic acid p-tolylamide]	101 to 1000	–
NC(=O)c1ccccc1C(=O)N1CCN(C(=O)Nc2ccc(F)cc2)CC1 [Compound XXI, 4-(2-Carbamoyl-benzoyl)-piperazine-1-carboxylic acid (4-fluoro-phenyl)-amide, reference compound]	–	IC50 [2]: 16800 nM
O=C(c1ccccc1)N1CCN(C(=S)Nc2ccc([N+](=O)[O-])cc2)CC1 [Compound 3, 4-Benzoyl-piperazine-1-carbothioic acid (4-nitro-phenyl)-amide]	11 to 100	–
O=C(Nc1ccc(NC(=O)N2CCN(C(=O)c3cccc(F)c3)CC2)cc1)c1ccc[n+]([O-])c1 [Compound 116, 4-(3-Fluoro-benzoyl)-piperazine-1-carboxylic acid {4-[(1-oxy-pyridine-3-carbonyl)-amino]-phenyl}-amide]	11 to 100	–
CC(C)(C)OC(=O)N1CCN(c2ccc(NC(=O)N3CCN(C(=O)c4cc(F)ccc4F)CC3)cc2F)CC1 [Compound 48, 4-(4-{[4-(2,5-Difluoro-benzoyl)-piperazine-1-carbonyl]-amino}-2-fluoro-phenyl)-piperazine-1-carboxylic acid tert-butyl ester]	101 to 1000	–
CN(C)c1ccc(NC(=S)N2CCN(C(=O)c3ccccc3)CC2)cc1 [Compound 2, 4-Benzoyl-piperazine-1-carbothioic acid (4-dimethylamino-phenyl)-amide]	1 to 10	–

Further lines, with some results ahead:

IC50 [1] [nM]	Structure (SMILES)	also measured
11 to 100	O=C(Nc1ccc(-c2nnn[nH]2)cc1)N1CCN(C(=O)c2cccc(F)c2)CC1 [Compound 135, 4-(3-Fluoro-benzoyl)-piperazine-1-carboxylic acid [4-(1H-tetrazol-5-yl)-phenyl]-amide]	–
11 to 100	CC(C)c1noc(-c2cc(NC(=O)N3CCN(C(=O)c4cccc(F)c4)CC3)ccc2F)n1 [Compound 163, 4-(3-Fluoro-benzoyl)-piperazine-1-carboxylic acid [4-fluoro-3-(3-isopropyl-[1,2,4]oxadiazol-5-yl)-phenyl]-amide]	–
11 to 100	O=C(Nc1ccc2sccc2c1)N1CCN(C(=O)c2cccc(F)c2)CC1 [Compound 27, 4-(3-Fluoro-benzoyl)-piperazine-1-carboxylic acid benzo[b]thiophen-5-ylamide]	–
11 to 100	O=C(Nc1ccc(NC(=O)N2CCN(C(=O)c3cccc(F)c3)CC2)cc1)c1ccc(F)cc1 [Compound 120, 4-(3-Fluoro-benzoyl)-piperazine-1-carboxylic acid [4-(4-fluoro-benzoylamino)-phenyl]-amide]	–
11 to 100	O=C(Nc1ccc(N2CCOCC2)c(F)c1)N1CCN(C(=O)c2cccc(F)c2)CC1 [Compound 41, 4-(3-Fluoro-benzoyl)-piperazine-1-carboxylic acid (3-fluoro-4-morpholin-4-yl-phenyl)-amide]	–
11 to 100	O=C(Nc1ccc(-c2cc[nH]n2)cc1)N1CCN(C(=O)c2cccc(F)c2)CC1 [Compound 89, 4-(3-Fluoro-benzoyl)-piperazine-1-carboxylic acid [4-(1H-pyrazol-3-yl)-phenyl]-amide]	–
11 to 100	Cc1nccc(-c2cccc(NC(=O)N3CCN(C(=O)c4cccc(F)c4)CC3)c2)n1 [Compound 78, 4-(3-Fluoro-benzoyl)-piperazine-1-carboxylic acid [3-(2-methyl-pyrimidin-4-yl)-phenyl]-amide]	–
101 to 1000	O=C(Nc1ccc([N+](=O)[O-])cc1)N1CCN(C(=O)c2cccc(F)c2)CC1 [Compound 37, 4-(3-Fluoro-benzoyl)-piperazine-1-carboxylic acid (4-nitro-phenyl)-amide]	–
101 to 1000	Cc1nc(-c2cccc(NC(=O)N3CCN(C(=O)c4cccc(F)c4)CC3)c2)cs1 [Compound 77, 4-(3-Fluoro-benzoyl)-piperazine-1-carboxylic acid [3-(2-methyl-thiazol-4-yl)-phenyl]-amide]	–
101 to 1000	O=C(Nc1ccc(NC(=O)N2CCN(C(=O)c3cccc(F)c3)CC2)cc1)c1ccc(F)nc1 [Compound 117, 4-(3-Fluoro-benzoyl)-piperazine-1-carboxylic acid {4-[(6-fluoro-pyridine-3-carbonyl)-amino]-phenyl}-amide]	–
11 to 100	O=C(Nc1nc(-c2cccnc2)cs1)N1CCN(C(=O)c2cccc(F)c2)CC1 [Compound 74, 4-(3-Fluoro-benzoyl)-piperazine-1-carboxylic acid (4-pyridin-3-yl-thiazol-2-yl)-amide]	–
11 to 100	CC(C)c1noc(-c2cccc(NC(=O)N3CCN(C(=O)c4cccc(F)c4)CC3)c2)n1 [Compound 162, 4-(3-Fluoro-benzoyl)-piperazine-1-carboxylic acid [3-(3-isopropyl-[1,2,4]oxadiazol-5-yl)-phenyl]-amide]	–
11 to 100	O=C(Nc1ccc(NC(=O)N2CCN(C(=O)c3cccc(F)c3)CC2)cc1)c1ccccn1 [Compound 114, 4-(3-Fluoro-benzoyl)-piperazine-1-carboxylic acid {4-[(pyridine-2-carbonyl)-amino]-phenyl}-amide]	–
101 to 1000	O=C(Nc1ccc(Oc2cccnc2)nc1)N1CCN(C(=O)c2cccc(F)c2)CC1 [Compound 44, 4-(3-Fluoro-benzoyl)-piperazine-1-carboxylic acid [6-(pyridin-3-yloxy)-pyridin-3-yl]-amide]	–
11 to 100	O=C(Nc1nc2ccccc2s1)N1CCN(C(=O)c2cccc(F)c2)CC1 [Compound 65, 4-(3-Fluoro-benzoyl)-piperazine-1-carboxylic acid benzothiazol-2-ylamide]	–
101 to 1000	O=C(Nc1nc2ccccc2[nH]1)N1CCN(C(=O)c2cccc(F)c2)CC1 [Compound 64, 4-(3-Fluoro-benzoyl)-piperazine-1-carboxylic acid (1H-benzoimidazol-2-yl)-amide]	–
11 to 100	O=C(Nc1ccc(-c2cccs2)cc1)N1CCN(C(=O)c2cccc(F)c2)CC1 [Compound 28, 4-(3-Fluoro-benzoyl)-piperazine-1-carboxylic acid (4-thiophen-2-yl-phenyl)-amide]	–
101 to 1000	O=C(Nc1ccc(F)c(-c2ncn[nH]2)c1)N1CCN(C(=O)c2cccc(F)c2)CC1 [Compound 161, 4-(3-Fluoro-benzoyl)-piperazine-1-carboxylic acid [4-fluoro-3-(2H-[1,2,4]triazol-3-yl)-phenyl]-amide]	–
11 to 100	O=C(Nc1ccc2nc(NC(=O)N3CCN(C(=O)c4cccc(F)c4)CC3)sc2c1)c1ccccn1 [Compound 140, 4-(3-Fluoro-benzoyl)-piperazine-1-carboxylic acid {6-[(pyridine-2-carbonyl)-amino]-benzothiazol-2-yl}-amide]	–
11 to 100	O=C(Nc1cccc(Br)c1)N1CCN(C(=O)c2cccc(F)c2)CC1 [Compound 32, 4-(3-Fluoro-benzoyl)-piperazine-1-carboxylic acid (3-bromo-phenyl)-amide]	–
